What was measured:
[1] = test system: Mycobacterium tuberculosis; assay: Antimicrobial activity against Mycobacterium tuberculosis TB19 isolate at 0.1 ug/ml after 3 weeks; assay type: functional
[2] = test system: Mycobacterium tuberculosis; assay: Antimicrobial activity against Mycobacterium tuberculosis TB19 isolate at 0.4 ug/ml after 3 weeks; assay type: functional
[3] = test system: Mycobacterium tuberculosis; assay: Antimicrobial activity against Mycobacterium tuberculosis TB7 isolate at 0.1 ug/ml after 1 week; assay type: functional
[4] = test system: Mycobacterium tuberculosis; assay: Antimicrobial activity against Mycobacterium tuberculosis TB7 isolate at 0.1 ug/ml after 2 weeks; assay type: functional
[5] = test system: Mycobacterium tuberculosis; assay: Antimicrobial activity against Mycobacterium tuberculosis H37Rv at 0.4 ug/ml after 2 weeks by […] method; assay type: functional
[6] = test system: Mycobacterium tuberculosis; assay: Antimicrobial activity against Mycobacterium tuberculosis TB19 isolate at 0.1 ug/ml after 2 weeks; assay type: functional
[7] = test system: Mycobacterium tuberculosis; assay: Antimicrobial activity against Mycobacterium tuberculosis H37Rv at 0.1 ug/ml after 1 week by […] method; assay type: functional
[8] = test system: Mycobacterium tuberculosis; assay: Antimicrobial activity against Mycobacterium tuberculosis TB20 isolate at 0.1 ug/ml after 3 weeks; assay type: functional
[9] = test system: Mycobacterium tuberculosis; assay: Antimicrobial activity against Mycobacterium tuberculosis TB7 isolate at 0.4 ug/ml after 4 weeks; assay type: functional
[10] = test system: Mycobacterium tuberculosis; assay: Antimicrobial activity against Mycobacterium tuberculosis TB7 isolate at 0.4 ug/ml after 2 weeks; assay type: functional
[11] = test system: Mycobacterium tuberculosis; assay: Antimicrobial activity against Mycobacterium tuberculosis TB7 isolate at 0.4 ug/ml after 1 week; assay type: functional
[12] = test system: Mycobacterium tuberculosis; assay: Antimicrobial activity against Mycobacterium tuberculosis H37Rv at 0.1 ug/ml after 4 weeks by […] method; assay type: functional
[13] = test system: Mycobacterium tuberculosis; assay: Antimicrobial activity against Mycobacterium tuberculosis TB19 isolate at 0.1 ug/ml after 1 week; assay type: functional
[14] = test system: Mycobacterium tuberculosis; assay: Antimicrobial activity against Mycobacterium tuberculosis TB7 isolate at 0.4 ug/ml after 3 weeks; assay type: functional
[15] = test system: Mycobacterium tuberculosis; assay: Antimicrobial activity against Mycobacterium tuberculosis H37Rv at 0.4 ug/ml after 3 weeks by […] method; assay type: functional
[16] = test system: Mycobacterium tuberculosis; assay: Antimicrobial activity against Mycobacterium tuberculosis TB20 isolate at 0.4 ug/ml after 3 weeks; assay type: functional
[17] = test system: Mycobacterium tuberculosis; assay: Antimicrobial activity against Mycobacterium tuberculosis TB19 isolate at 0.4 ug/ml after 1 week; assay type: functional
[18] = test system: Mycobacterium tuberculosis; assay: Antimicrobial activity against Mycobacterium tuberculosis H37Rv at 0.1 ug/ml after 3 weeks by […] method; assay type: functional
[19] = test system: Mycobacterium tuberculosis; assay: Antimicrobial activity against Mycobacterium tuberculosis H37Rv at 0.4 ug/ml after 4 weeks by […] method; assay type: functional
[20] = test system: Mycobacterium tuberculosis; assay: Antimicrobial activity against Mycobacterium tuberculosis TB19 isolate at 0.1 ug/ml after 4 weeks; assay type: functional
[21] = test system: Mycobacterium tuberculosis; assay: Antimicrobial activity against Mycobacterium tuberculosis TB7 isolate at 0.1 ug/ml after 3 weeks; assay type: functional
[22] = test system: Mycobacterium tuberculosis; assay: Antimicrobial activity against Mycobacterium tuberculosis TB20 isolate at 0.4 ug/ml after 4 weeks; assay type: functional
[23] = test system: Mycobacterium tuberculosis; assay: Antimicrobial activity against Mycobacterium tuberculosis TB19 isolate at 0.4 ug/ml after 4 weeks; assay type: functional
[24] = test system: Mycobacterium tuberculosis; assay: Antimicrobial activity against Mycobacterium tuberculosis TB19 isolate at 0.4 ug/ml after 2 weeks; assay type: functional
[25] = test system: Mycobacterium tuberculosis; assay: Antimicrobial activity against Mycobacterium tuberculosis TB7 isolate at 0.1 ug/ml after 4 weeks; assay type: functional
[26] = test system: Mycobacterium tuberculosis; assay: Antimicrobial activity against Mycobacterium tuberculosis TB20 isolate at 0.4 ug/ml after 1 week; assay type: functional
[27] = test system: Mycobacterium tuberculosis; assay: Antimicrobial activity against Mycobacterium tuberculosis TB20 isolate at 0.4 ug/ml after 2 weeks; assay type: functional
[28] = test system: Mycobacterium tuberculosis; assay: Antimicrobial activity against Mycobacterium tuberculosis TB20 isolate at 0.1 ug/ml after 2 weeks; assay type: functional
[29] = Stability in BACTEC medium at 37 degC upto 4 weeks; assay type: physicochemical; conditions: 672 h
[30] = test system: Mycobacterium tuberculosis; assay: Antimicrobial activity against Mycobacterium tuberculosis TB20 isolate at 0.1 ug/ml after 4 weeks; assay type: functional
[31] = test system: Mycobacterium tuberculosis; assay: Antimicrobial activity against Mycobacterium tuberculosis H37Rv at 0.4 ug/ml after 1 week by […] method; assay type: functional
[32] = test system: Mycobacterium tuberculosis; assay: Antimicrobial activity against Mycobacterium tuberculosis H37Rv at 0.1 ug/ml after 2 weeks by […] method; assay type: functional
[33] = test system: Mycobacterium tuberculosis; assay: Antimicrobial activity against Mycobacterium tuberculosis TB20 isolate at 0.1 ug/ml after 1 week; assay type: functional
[34] = test system: Mycobacterium tuberculosis; assay: Antimicrobial activity against Mycobacterium tuberculosis H37Rv at 2 ug/ml after 1 week by […] method; assay type: functional
[35] = test system: Mycobacterium tuberculosis; assay: Antimicrobial activity against Mycobacterium tuberculosis H37Rv at 2 ug/ml after 2 weeks by […] method; assay type: functional
[36] = test system: Mycobacterium tuberculosis; assay: Antimicrobial activity against Mycobacterium tuberculosis H37Rv at 2 ug/ml after 3 weeks at by […] method; assay type: functional
[37] = test system: Mycobacterium tuberculosis; assay: Antimicrobial activity against Mycobacterium tuberculosis H37Rv at 2 ug/ml after 4 weeks by […] method; assay type: functional

Structure (SMILES): NNC(=O)c1ccncc1 [ISONIAZID]
- CFU [1]: 4.8 10^3/ml
- CFU [2]: 3.4 10^4/ml
- CFU [3]: 1.7 10^5/ml
- CFU [4]: 7.6 10^3/ml
- CFU [5]: 3.6 10^3/ml
- CFU [6]: 1.1 10^3/ml
- CFU [7]: 1.2 10^3/ml
- CFU [8]: 1.6 10^4/ml
- CFU [9]: 1.1 10^5/ml
- CFU [10]: 5.6 10^2/ml
- CFU [11]: 0 mL⁻¹
- CFU [12]: 1.22 10^5/ml
- CFU [13]: 25 mL⁻¹
- CFU [14]: 1.2 10^4/ml
- CFU [15]: 1.45 10^4/ml
- CFU [16]: 7.5 10^4/ml
- CFU [17]: 0 mL⁻¹
- CFU [18]: 2.4 10^4/ml
- CFU [19]: 1.32 10^4/ml
- CFU [20]: 7 10^3/ml
- CFU [21]: 2.5 10^4/ml
- CFU [22]: 8 10^4/ml
- CFU [23]: 4.8 10^4/ml
- CFU [24]: 2 10^2/ml
- CFU [25]: 7.9 10^4/ml
- CFU [26]: 40 mL⁻¹
- CFU [27]: 1.3 10^4/ml
- CFU [28]: 1.4 10^4/ml
- Stability [29]: Stable
- CFU [30]: 2.5 10^4/ml
- CFU [31]: 55 mL⁻¹
- CFU [32]: 3.1 10^3/ml
- CFU [33]: 2.4 10^2/ml

Structure (SMILES): CO[C@H]1/C=C/O[C@@]2(C)Oc3c(C)c(O)c4c(O)c(c(/C=N/N5CCN(C)CC5)c(O)c4c3C2=O)NC(=O)/C(C)=C\C=C\[C@H](C)[C@H](O)[C@@H](C)[C@@H](O)[C@@H](C)[C@H](OC(C)=O)[C@@H]1C [RIFAMPIN]
- CFU [34]: 0 mL⁻¹
- CFU [35]: 0 mL⁻¹
- CFU [36]: 0 mL⁻¹
- CFU [37]: 0 mL⁻¹

Source: ChEMBL document CHEMBL1145489, “Isoniazid induces its own resistance in nonreplicating Mycobacterium tuberculosis” (Antimicrob Agents Chemother, 2007)
